One may read the IC50 as the point on the concentration scale where inhibition reaches its midpoint.

From PMC12508057, “Discovery of ETI41 and ETI60: novel selective endosomal Toll-like receptor inhibitors for the treatment of autoimmune diseases” (Experimental & Molecular Medicine, 2025) come the findings set out here.

Where two headings read alike, the source gives them in different places.

In this test the target is T1, TLR7 (Mus musculus, UniProt P58681).
T1 construct: endogenous in cells; host or cells: RAW 264.7
T1 sequence (P58681 27-1050): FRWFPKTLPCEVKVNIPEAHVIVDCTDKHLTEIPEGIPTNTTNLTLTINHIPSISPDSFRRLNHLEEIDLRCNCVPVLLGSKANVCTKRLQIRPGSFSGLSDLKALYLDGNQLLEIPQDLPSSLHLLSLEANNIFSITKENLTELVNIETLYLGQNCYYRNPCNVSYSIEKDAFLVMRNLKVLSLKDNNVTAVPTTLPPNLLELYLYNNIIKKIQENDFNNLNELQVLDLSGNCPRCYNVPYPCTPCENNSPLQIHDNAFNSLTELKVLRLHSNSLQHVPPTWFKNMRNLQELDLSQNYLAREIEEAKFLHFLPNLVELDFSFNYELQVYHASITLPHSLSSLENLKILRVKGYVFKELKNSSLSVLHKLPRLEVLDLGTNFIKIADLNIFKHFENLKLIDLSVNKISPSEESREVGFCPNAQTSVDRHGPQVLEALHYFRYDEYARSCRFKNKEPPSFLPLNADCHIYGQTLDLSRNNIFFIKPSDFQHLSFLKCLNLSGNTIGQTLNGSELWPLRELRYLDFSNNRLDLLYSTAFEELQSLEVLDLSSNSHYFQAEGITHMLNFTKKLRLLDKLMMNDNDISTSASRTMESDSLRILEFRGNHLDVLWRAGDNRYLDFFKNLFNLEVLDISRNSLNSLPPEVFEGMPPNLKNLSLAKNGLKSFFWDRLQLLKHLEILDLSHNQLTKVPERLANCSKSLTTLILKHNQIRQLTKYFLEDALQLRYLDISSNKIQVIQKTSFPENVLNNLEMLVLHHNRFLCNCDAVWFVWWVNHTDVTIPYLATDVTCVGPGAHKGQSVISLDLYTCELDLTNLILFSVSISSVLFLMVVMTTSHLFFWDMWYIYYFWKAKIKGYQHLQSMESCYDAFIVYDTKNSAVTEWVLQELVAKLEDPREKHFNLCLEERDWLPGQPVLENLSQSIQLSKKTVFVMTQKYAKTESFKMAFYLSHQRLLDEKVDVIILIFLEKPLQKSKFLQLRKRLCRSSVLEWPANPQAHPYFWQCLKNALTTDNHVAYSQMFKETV
The experiment in a line: TLR7 inhibition, TNF-α secretion (ELISA) in RAW 264.7. Particulars: for TLR7 TI value: therapeutic index, RAW 264.7. Type of test: cell-based. The procedure:
RAW 264.7 and differentiated THP-1 cells were seeded into 96-well plates at 2 × 10^4 cells per well, while Daudi cells were seeded at 5 × 10^4 cells per well. After stabilization for 30 min, cells were stimulated with specific TLR agonists for 4 or 24 h. Supernatants were diluted and transferred to precoated ELISA plates to measure TNF-α secretion using kits from Invitrogen. Optical absorbance was measured using a BioTek Synergy HTX multimode microplate reader, and data were interpolated using BioTek Gen5 software.
One-tailed paired Student’s t-tests were performed using Microsoft Excel (Microsoft). Semi-logarithmic conversions and nonregression curve analyses for calculating 50% lethal concentration (LC50) and 50% inhibitory concentration (IC50) values were conducted using GraphPad Prism 7.0 (GraphPad). The therapeutic index was calculated as […]. Animal experimental results are expressed as mean ± standard deviation and analyzed using SPSS v.20 (IBM SPSS Statistics). Homogeneity of variance was assessed using Levene’s test.
The cells were activated with agonistic ligands: […], TLR3 (poly I:C, 2 μg/ml, 24 h), TLR4 (LPS, 10 or 100 ng/ml, 4 h), TLR5 (FLA-ST, 500 ng/ml, 4 h), TLR7 (ORN06/LyoVec, 2 μg/ml, 24 h; and IMQ, 1 μg/ml, 4 h), TLR8 (TL8-506, 2 μg/ml, 24 h) and TLR9 (ODN2395, 1 μM, 4 h) at various concentrations in RAW 264.7 cells, human Daudi cells and THP-1 cells. Data are from at least three independent experiments (n = 3) and statistical differences between the induced case and other cases were analyzed and verified using a one-tailed Student’s t-test (*P < 0.05, **P < 0.01, ***P < 0.001).

As for `Cc1cc2c(N)c3c(nc2n1CCCN(C)C)CCCCCC3` [ETI41], the IC50 was determined as 630 nM and the “TLR7 TI value” amounted to 106.63.
`COc1ccc2c3c(N)c4c(nc3n(CCCN(C)C)c2c1)CCCC4` [ETI60]: the “TLR7 TI value” worked out at 75.65. The IC50 (RAW 264.7 cell line, read-out: TLR7 IC50 (mTNFα)) is 680 nM.
